# Data taken from paper PMC7238232, “Acamprosate Is a Substrate of the Human Organic Anion Transporter (OAT) 1 without OAT3 Inhibitory Properties: Implications for Renal Acamprosate Secretion and Drug–Drug Interactions” (Pharmaceutics, 2020).
# Tests used:
# [1] = tested on: PEPT1; details: Caco-2 cells, preliminary data; cited from earlier work
# [2] = no reference given; cited from earlier work
# [3] = tested on: B^0,+AT/rBAT; details: Caco-2 cells, preliminary data; cited from earlier work
# [4] = tested on: HEK293-Flp-In mock cells; experiment: CellTiter-Glo cell viability assay, mock cells; details: up to 3300 µM acamprosate; 3 h
# [5] = biological target: T1, OAT1 (Homo sapiens, UniProt Q4U2R8); experiment: [14C]-PAH uptake and its inhibition in HEK293-Flp-In OAT1 cells
# T1 sequence (Q4U2R8 1-563): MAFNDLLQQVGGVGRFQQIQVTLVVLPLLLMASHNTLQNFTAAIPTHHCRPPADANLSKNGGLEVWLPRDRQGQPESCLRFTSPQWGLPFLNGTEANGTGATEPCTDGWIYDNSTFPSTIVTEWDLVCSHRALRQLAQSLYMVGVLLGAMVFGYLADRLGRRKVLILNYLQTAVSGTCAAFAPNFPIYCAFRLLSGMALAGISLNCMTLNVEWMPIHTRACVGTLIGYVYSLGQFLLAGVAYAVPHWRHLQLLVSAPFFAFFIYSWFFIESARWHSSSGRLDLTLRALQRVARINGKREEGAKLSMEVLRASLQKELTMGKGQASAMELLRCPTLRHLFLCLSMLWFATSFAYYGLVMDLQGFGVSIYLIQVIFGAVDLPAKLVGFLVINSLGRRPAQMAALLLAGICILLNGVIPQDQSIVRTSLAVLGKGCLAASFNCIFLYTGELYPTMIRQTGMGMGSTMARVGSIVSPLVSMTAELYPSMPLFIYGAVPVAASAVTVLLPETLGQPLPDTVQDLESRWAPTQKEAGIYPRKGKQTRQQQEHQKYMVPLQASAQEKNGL
# Experimental: All uptake experiments were performed on 24- or 96-well plates. Before the experiment initiation, the cells were incubated with either 500 or 200 µL∙well^−1 prewarmed buffer for 10 min at 37 °C in a microplate incubator (VWR International AB, Stockholm, Sweden), without shaking. […] The experiment was stopped by adding 200 µL∙well^−1 of ice-cold buffer and subsequent rinse three times with the same amount of buffer. In Lab. 1 the sample analysis of the OAT1/OAT3/mock studies consisted in removing the rinsing buffer and lysing the cells with 70 µL 1M NaOH, following by incubation for 60 min at 37 °C and 100 rpm. A total of 50 µL of cell lysate from each well was transferred to 96-well Luma plates bottom coated with dry scintillant. Then, 2∙20 µL of each donor and three 50 µL blank samples were applied on the same plate. The dry plates were covered with transparent seals and analyzed using a TopCount NXT Microplate Scintillation and Luminescence Counter (Perkin Elmer, Waltham, MA, USA). The remaining 20 µL cell lysate was neutralized with 20 µL 1M HCl∙well^−1, samples were mixed thoroughly and the total protein content in all the wells was measured using a BCA protein assay kit, microplate method, and a Tecan Safire II fluorometer (Tecan Austria GmbH, Grödig, Austria). For the experiments in Lab. 2, the cells were lysed by adding 200 µL 0.1% Triton X-100 and incubated for 5 min at 37 °C and 100 rpm. […] The total protein content was measured by using a BCA protein assay kit and a FLUOStar Omega fluorescence microplate reader (BMG Labtech, Ortenberg, Germany). The protein assay for the OAT3 and mock cell lines was performed in four independent wells of each cell line, seeded and treated in the same manner as the cells used in the uptake assay. For all the OAT1, OAT3, and mock isotope uptake studies, the radiolabelled tracer accumulation (pmol) in each well was calculated by first determining the activity of the isotope (DPM∙pmol^−1) from the radioactivity (DPM) of the donor sample divided by the theoretical isotope concentration (pmol), then dividing the total radioactivity in the well (DPM) to the specific activity of the isotope (DPM∙pmol^−1).
# A range of preincubation solutions was prepared at the same concentrations of acamprosate applied in the inhibition assays. Acamprosate was dissolved in HBSS buffered with 10 mM HEPES and the pH was adjusted to 7.40 ± 0.01. The preincubation solutions were prewarmed to 37 °C and applied to the corresponding cells after removing the cell growth medium. The preincubation was done for 3 h, at 37 °C, without shaking. After the preincubation, the solutions were removed, and the inhibition experiment was performed as described in the Section 2.6.
# The obtained intracellular amounts (pmol) were normalized to the assay time (min) and cell surface area (cm^2) or protein amount (mg protein) to obtain a term hereafter referred to as uptake rate. The uptake rate of acamprosate as a function of concentration was fitted to a Michaelis–Menten type equation which includes a saturable and a non-saturable uptake component, (1) V=Vmax · [S]/Km +[S]+P · [S] where V is the substrate uptake rate; Vmax is the maximal uptake rate; P is a constant related to non-saturable apparent uptake, i.e., factors such as passive diffusion, unspecific binding and residual compound present after washing steps, and [S] is the substrate concentration (µM). […] Assuming competitive interaction, equilibrium dissociation constants, Ki, were calculated from the IC50 value for each substrate/inhibitor pair, at substrate Km, using the Cheng–Prusoff equation [24].
smiles,measurement,setting,value
"CC(=O)NCCCS(=O)(=O)O [acamprosate, acetylhomotaurinate]",inhibition of substrate transport via PEPT1,[1],did not inhibit
same,logP,[2],−3.57
same,pKa,[2],1.83
same,"inhibition of substrate transport via B^0,+AT/rBAT",[3],did not inhibit
same,decrease in cell viability,[4],≤ 10%
same,effect on uptake of [14C]-PAH in OAT1 expressing cells,"[5]; 9.5 µM [14C]-PAH, 200 µM PAH, 300 µM probenecid, 1000 and 10,000 µM acamprosate, Lab. 1",significantly decreased
same,IC50,"[5]; IC50, 3 h, inhibition of PAH uptake via OAT1, 9.5 µM [14C]-PAH, after 3 h preincubation with inhibitor, Lab. 2",582 µM
same,IC50,"[5]; IC50, inhibition of PAH uptake via OAT1, 9.5 µM [14C]-PAH, 3 min, applied concomitantly, Lab. 2",638 µM
same,IC50,"[5]; IC50, inhibition of PAH uptake via OAT1, 9.5 µM [14C]-PAH, 5 min, Lab. 1",1390 µM
same,Ki,"[5]; Ki of acamprosate on PAH uptake, fit to competitive kinetics (Equation 4), Lab. 2",1230 ± 341 µM
same,Ki,"[5]; Ki, inhibition of PAH uptake via OAT1, 3 h, Cheng-Prusoff, after 3 h preincubation, Lab. 2",287 µM
same,Ki,"[5]; Ki, inhibition of PAH uptake via OAT1, Cheng-Prusoff from IC50, competitive inhibition assumed, Lab. 1",1140 µM
same,Ki,"[5]; Ki, inhibition of PAH uptake via OAT1, Cheng-Prusoff, applied concomitantly, Lab. 2",315 µM
same,effect of 3 h preincubation on inhibition of [14C]-PAH uptake,"[5]; OAT1 expressing cells, 0–10,000 µM acamprosate, 200 µM PAH, 300 µM probenecid, Lab. 2",no apparent effect
same,Ki,[5]; OAT1 inhibiting Ki-value,638 µM
same,mechanism of inhibition of OAT1-mediated PAH transport,"[5]; PAH uptake with 0, 625, 1250 or 2500 µM acamprosate, Lab. 2",competitive
same,Ki,"[5]; human, Ki values, inhibition of OAT1-mediated transport of PAH, range over the two laboratories",582 to 1230 µM
same,IC50,"[5]; human, hek293-flp-in oat1 cells, IC50, p-Aminohippuric Acid (PAH), input for DDI index, Table A1, for acamprosate interval of obtained values",287 to 1230 µM
same,IC50,"[5]; log IC50 ± log S.E.M., 3 h, inhibition of PAH uptake via OAT1, after 3 h preincubation, Lab. 2, log of IC50 in µM",631 µM
same,IC50,"[5]; log IC50 ± log S.E.M., inhibition of PAH uptake via OAT1, 9.5 µM [14C]-PAH, 5 min, Lab. 1, log of IC50 in µM",1260 µM
same,IC50,"[5]; log IC50 ± log S.E.M., inhibition of PAH uptake via OAT1, 3 min, applied concomitantly, Lab. 2, log of IC50 in µM",631 µM
